Reference: patent US20240358693A1, “METHODS OF TREATING PAIN” (Aisa Pharma, Inc., priority 2023, published 2024)

Tested on: participants with SSc-RP
Experiment: Scleroderma Health Assessment Questionnaire (SHAQ): disability indices and visual analog scales
Format: in vivo, human
Conditions: Part A
Outline: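 Participants with SSc-RP completed the SHAQ at screening and each in-clinic visit. Standard and alternative disability indices (eight categories, 0–3; standard adjusts for aids/assistance) plus Raynaud's VAS on interference over the past 7 days. Reported as absolute change from baseline to end of each dosing period.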

[1] = Modified ITT, dose Cilnidipine 20 mg, or 20 mg + Tadalafil 5 mg
[2] = PP Population, sensitivity analysis, Pooled Cilnidipine 10 mg and Cilnidipine 10 mg + Tadalafil 5 mg
[3] = PP Population, sensitivity analysis, Pooled Cilnidipine 20 mg and Cilnidipine 20 mg + Tadalafil 5 mg
[4] = PP Population, sensitivity analysis, cilnidipine 10 mg and/or tadalafil 5 mg as labelled

In the case of `COCCOC(=O)C1=C(C)NC(C)=C(C(=O)OC/C=C/c2ccccc2)C1c1cccc([N+](=O)[O-])c1` (stereo not shown) [Cilnidipine, cilnidipine], the “SHAQ Finger Ulcers, In Clinic Visit (Day 12), Mean” value [1] is reported as 0.867, the “SHAQ Finger Ulcers, In Clinic Visit (Day 12), Median” value [1] is reported as 0.700 and the “SHAQ Standard disability index, Baseline, Mean” value [1] is reported as 0.250. The “SHAQ Standard disability index, Baseline, Median” value [1] was 0.375, the “SHAQ Standard disability index, In Clinic Visit (Day 12), Mean” value [1] was 0.125 and the “SHAQ Standard disability index, In Clinic Visit (Day 12), Median” value [1] was 0.125. For the same compound, the “SHAQ Visual Analog Scale-Breathing Problems, Baseline, Mean” value [1] was 1.133, the “SHAQ Visual Analog Scale-Breathing Problems, Baseline, Median” value [1] was 1.200 and the “SHAQ Visual Analog Scale-Breathing Problems, In Clinic Visit (Day 12), Mean” value [1] was 0.300. For the same compound, the “SHAQ Visual Analog Scale-Breathing Problems, In Clinic Visit (Day 12), Median” value [1] was 0.400, the “SHAQ Visual Analog Scale-Intestinal Problems, Baseline, Mean” value [1] was 0.833 and the “SHAQ Visual Analog Scale-Intestinal Problems, Baseline, Median” value [1] was 1.000. For the same compound, the “SHAQ Visual Analog Scale-Intestinal Problems, In Clinic Visit (Day 12), Mean” value [1] was 1.133, the “SHAQ Visual Analog Scale-Intestinal Problems, In Clinic Visit (Day 12), Median” value [1] was 1.300 and the “SHAQ Visual Analog Scale-Pain, Baseline, Mean” value [1] was 2.167. The “SHAQ Visual Analog Scale-Pain, Baseline, Median” value [1] was 1.500, the “SHAQ Visual Analog Scale-Pain, In Clinic Visit (Day 12), Mean” value [1] was 1.067 and the “SHAQ Visual Analog Scale-Pain, In Clinic Visit (Day 12), Median” value [1] was 0.700. For the same compound, the “SHAQ Visual Analog Scale-Raynaud's, Baseline, Mean” value [1] was 2.300, the “SHAQ Visual Analog Scale-Raynaud's, Baseline, Median” value [1] was 2.500 and the “SHAQ Visual Analog Scale-Raynaud's, In Clinic Visit (Day 12), Mean” value [1] was 1.033. The “SHAQ Visual Analog Scale-Raynaud's, In Clinic Visit (Day 12), Median” value [1] was 1.100, the “SHAQ alternative disability index, Baseline, Mean” value [1] was 0.208 and the “SHAQ alternative disability index, Baseline, Median” value [1] was 0.250. The “SHAQ alternative disability index, In Clinic Visit (Day 12), Mean” value [1] was 0.125, the “SHAQ alternative disability index, In Clinic Visit (Day 12), Median” value [1] was 0.125 and the “SHAQ Alternative Disability Index: Baseline, Mean” value [2] was 0.458. For the same compound, the “SHAQ Alternative Disability Index: Baseline, Median” value [2] was 0.250, the “SHAQ Alternative Disability Index: Change from Baseline (Day 12), Mean” value [2] was 0.021 and the “SHAQ Alternative Disability Index: Change from Baseline (Day 12), Median” value [2] was 0.000. The “SHAQ Alternative Disability Index: In-Clinic Visit (Day 12), Mean” value [2] was 0.479, the “SHAQ Alternative Disability Index: In-Clinic Visit (Day 12), Median” value [2] was 0.250 and the “SHAQ Alternative Disability Index: Percent Change from Baseline (Day 12), Mean” value [2] was 28.11%. For the same compound, the “SHAQ Alternative Disability Index: Percent Change from Baseline (Day 12), Median” value [2] was −10.00%, the “SHAQ Alternative Disability Index: Baseline, Mean” value [3] was 0.453 and the “SHAQ Alternative Disability Index: Baseline, Median” value [3] was 0.250. For the same compound, the “SHAQ Alternative Disability Index: Change from Baseline (Day 12), Mean” value [3] was −0.036, the “SHAQ Alternative Disability Index: Change from Baseline (Day 12), Median” value [3] was −0.063 and the “SHAQ Alternative Disability Index: In-Clinic Visit (Day 12), Mean” value [3] was 0.417. The “SHAQ Alternative Disability Index: In-Clinic Visit (Day 12), Median” value [3] was 0.250, the “SHAQ Alternative Disability Index: Percent Change from Baseline (Day 12), Mean” value [3] was 13.40% and the “SHAQ Alternative Disability Index: Percent Change from Baseline (Day 12), Median” value [3] was −18.13%. For the same compound, the “SHAQ Visual Analogue Scale - Breathing Problems: Baseline, Mean” value [4] was 1.875, the “SHAQ Visual Analogue Scale - Breathing Problems: Baseline, Median” value [4] was 0.000 and the “SHAQ Visual Analogue Scale - Breathing Problems: Change from Baseline (Day 12), Mean” value [4] was −0.300. For the same compound, the “SHAQ Visual Analogue Scale - Breathing Problems: Change from Baseline (Day 12), Median” value [4] was 0.000, the “SHAQ Visual Analogue Scale - Breathing Problems: In-Clinic Visit (Day 12), Mean” value [4] was 1.575 and the “SHAQ Visual Analogue Scale - Breathing Problems: In-Clinic Visit (Day 12), Median” value [4] was 0.000. For the same compound, the “SHAQ Visual Analogue Scale - Breathing Problems: Percent Change from Baseline (Day 12), Mean” value [4] was −16.00%, the “SHAQ Visual Analogue Scale - Breathing Problems: Percent Change from Baseline (Day 12), Median” value [4] was −16.00% and the “SHAQ Visual Analogue Scale - Finger Ulcers: Baseline, Mean” value [4] was 0.700. The “SHAQ Visual Analogue Scale - Finger Ulcers: Baseline, Median” value [4] was 0.500, the “SHAQ Visual Analogue Scale - Finger Ulcers: Change from Baseline (Day 12), Mean” value [4] was −0.425 and the “SHAQ Visual Analogue Scale - Finger Ulcers: Change from Baseline (Day 12), Median” value [4] was −0.350. The “SHAQ Visual Analogue Scale - Finger Ulcers: In-Clinic Visit (Day 12), Mean” value [4] was 0.275, the “SHAQ Visual Analogue Scale - Finger Ulcers: In-Clinic Visit (Day 12), Median” value [4] was 0.000 and the “SHAQ Visual Analogue Scale - Finger Ulcers: Percent Change from Baseline (Day 12), Mean” value [4] was −69.44%. The “SHAQ Visual Analogue Scale - Finger Ulcers: Percent Change from Baseline (Day 12), Median” value [4] was −69.44%, the “SHAQ Visual Analogue Scale - Intestinal Problems: Baseline, Mean” value [4] was 2.975 and the “SHAQ Visual Analogue Scale - Intestinal Problems: Baseline, Median” value [4] was 2.550. For the same compound, the “SHAQ Visual Analogue Scale - Intestinal Problems: Change from Baseline (Day 12), Mean” value [4] was −1.875.
